Like-named read-outs stand apart in the source and are kept apart here.
How the values were obtained:
JAK3 enzyme = JAK3 enzyme (Homo sapiens (Human), UniProt P52333); assay: JAK Caliper Enzyme Assay at 4 μM or 1 mM ATP; assay type: biochemical
[1] = tested on: IL-15 induced STAT5 phosphorylation in human whole blood lymphocytes; assay: HWB IL-15 induced STAT5 phosphorylation assay; assay type: cell-based; settings: IL-15 stimulated, read-out: HWB-IL15-pSTAT5 IC50
Method: HWB IL-15 Induced STAT5 Phosphorylation Assay
After mixing and incubating for 45 minutes at 37° C., 5 μl D-PBS (unstimulated control) or 20× stocks of 5 μl human IL-15 (final concentration is 50 ng/ml) were added, and mixed three times. After incubating 15 minutes at 37° C., 1× Lyse/Fix Buffer (BD Phosflow 5× Lyse/Fix Buffer) was added to all wells at 1000 μl/well, then incubated for 20 minutes at 37° C. and spun 5 mins at 1200 rpm. […] Following incubating at 4° C. over night, all the samples were transferred to 96-well polypropylene U-bottom plate, and checked by flow cytometry gated on total lymphocytes.

[2] = tested on: IL-15 induced P-STAT5 in human PBMC; assay: PBMC IL-15 induced P-STAT5; assay type: cell-based; settings: read-out: PBMC IL15-pSTAT5 IC50
Method: PBMC IL-15 Induced P-STAT5
Frozen human PBMC (200-250 million cells/vial) was thawed at 37° C. The cells were transferred to 10 mL warm medium in a 50-mL conical tube, and centrifuged at 1,200 RPM at room temperature for 5 min. The supernatant was aspirated. […] After adding 47 ml D-PBS (37° C.) to PBMC/FBS suspension, centrifuging at 1,200 RPM at room temperature for 5 min, and aspirating the supernatant, the cells were resuspended in 20 mL warm RPMI medium. Ninety μL of cell suspension were pipetted per well in a 96-well, deep-well, V-bottom plate, and the plate was incubated at 37° C. for 30 min. […] After adding 0.8 mL staining buffer per well, the plates were centrifuged at 1,200 RPM (Beckman GS-6R or Sorvall Legend) at room temperature for 5 min, and again the supernatant was aspirated using a 8-channel or 12-channel manifold. The plate was vortexed, and 0.35 mL 90% methanol/10% H2O (−20° C.) was added per well, and the plate incubated on ice for 20 min. After again adding 0.8 mL staining buffer per well, the plates were centrifuged at 1,200 RPM (Beckman GS-6R or Sorvall Legend) at room temperature for 5 min, and again the supernatant was aspirated using a 8-channel or 12-channel manifold, and then 0.8 mL Staining buffer was added per well. After once again adding 0.8 mL staining buffer per well, the plates were centrifuged at 1,200 RPM (Beckman GS-6R or Sorvall Legend) at room temperature for 5 min, and again the supernatant was aspirated using a 8-channel or 12-channel manifold. […] Samples of 250 μL/well were transferred to a 96-well U-bottom plate, and the FACS analysis was performed gating on total lymphocytes. Samples were analyzed using a BD Calibur™ or BD FACSCanto™ flow cytometer equipped with the BD High Throughput Sampler.

[3] = Stability of JAK3 covalent inhibitors in human whole blood; settings: 1 μM, 37° C.
From the text: Stability of JAK3 Covalent Inhibitors in Rat and Human Whole Blood
Rat blood was collected from 3 male Sprague-Dawley rats (200-250 g, Charles River Laboratories) and pooled for each study. Human blood was collected from one male and one female healthy subjects at the Occupational Health & Wellness Center at Pfizer, Groton, CT and pooled for each study. Both rat and human blood was collected freshly into K2-EDTA tubes and kept on ice. An aliquot of the blood was transferred to microtubes and pre-warmed for 10 min at 37° C. using a heat block. […] An aliquot of the incubation mixture was removed at designated time points during the course of the incubation, mixed with an aliquot of acetonitrile containing an internal standard, vortexed and centrifuged. The resulting supernatants were removed and subjected to LC-MS/MS analyses to determine parent compound concentrations. Peak area ratios of the parent compound vs the internal standard were used to determine the % of parent compound remaining vs incubation time.

[4] = read-out: JAK3 (4 μM ATP) IC50, 4 μM ATP
[5] = read-out: JAK3 (1 mM ATP) IC50, 1 mM ATP
[6] = Homo sapiens, PBMC, human PBMC, IL-15 stimulated

Sequence of JAK3 enzyme (P52333 whole entry, species assumed): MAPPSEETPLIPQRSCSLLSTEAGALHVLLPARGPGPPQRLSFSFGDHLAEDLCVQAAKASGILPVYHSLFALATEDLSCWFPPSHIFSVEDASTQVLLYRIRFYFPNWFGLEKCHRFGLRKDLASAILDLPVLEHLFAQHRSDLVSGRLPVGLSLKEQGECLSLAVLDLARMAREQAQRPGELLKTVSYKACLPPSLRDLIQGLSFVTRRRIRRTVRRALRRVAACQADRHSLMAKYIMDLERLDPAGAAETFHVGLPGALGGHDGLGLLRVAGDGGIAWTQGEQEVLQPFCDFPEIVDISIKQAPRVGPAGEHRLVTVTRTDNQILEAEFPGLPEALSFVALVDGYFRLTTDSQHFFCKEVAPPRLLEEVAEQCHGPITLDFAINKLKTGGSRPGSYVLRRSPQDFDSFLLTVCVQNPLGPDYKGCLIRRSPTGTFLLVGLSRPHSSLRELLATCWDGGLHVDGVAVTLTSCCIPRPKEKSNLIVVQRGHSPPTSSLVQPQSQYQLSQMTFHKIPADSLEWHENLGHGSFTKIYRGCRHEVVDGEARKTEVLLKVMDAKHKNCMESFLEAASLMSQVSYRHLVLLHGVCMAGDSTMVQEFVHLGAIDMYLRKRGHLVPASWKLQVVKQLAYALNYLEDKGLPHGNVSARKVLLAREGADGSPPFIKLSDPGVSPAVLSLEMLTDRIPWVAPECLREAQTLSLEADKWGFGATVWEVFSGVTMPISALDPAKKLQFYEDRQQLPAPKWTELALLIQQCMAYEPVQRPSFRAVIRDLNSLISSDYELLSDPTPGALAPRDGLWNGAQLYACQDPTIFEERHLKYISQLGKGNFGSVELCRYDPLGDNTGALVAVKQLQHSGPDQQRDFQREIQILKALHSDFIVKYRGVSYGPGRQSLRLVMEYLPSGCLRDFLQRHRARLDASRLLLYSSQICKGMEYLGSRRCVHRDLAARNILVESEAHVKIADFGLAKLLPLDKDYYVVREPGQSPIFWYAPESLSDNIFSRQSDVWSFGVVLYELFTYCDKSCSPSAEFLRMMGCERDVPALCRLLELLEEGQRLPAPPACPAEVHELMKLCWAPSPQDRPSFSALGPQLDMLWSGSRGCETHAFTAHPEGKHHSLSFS

Row | SMILES | IC50 (JAK3 enzyme; [4]) [nM] | IC50 (JAK3 enzyme; [5]) [nM] | IC50 ([1]; Lymphocyte) [nM] | Human blood stability t1/2 [3] [h] | IC50 [2, 6] [nM] | IC50 ([2]; human PBMC, IL-15 stimulated) [nM] | other results
1 | C=CC(=O)N1CC2CCN(c3cnc4[nH]cc(C(=O)NC(C)C)c4n3)C2C1 (stereo not shown) [Example 178, 2-(5-acryloylhexahydropyrrolo[3,4-b]pyrrol-1(2H)-yl)-N-(propan-2-yl)-5H-pyrrolo[2,3-b]pyrazine-7-carboxamide] | 1.1 | 102 | 2560 |  | 208 |  | 
2 | C=CC(=O)N1CCC[C@@H](Nc2ncnc3[nH]cc(-c4ccc(C(=O)NC5CC5)c(Cl)c4)c23)C1 [Example 31, 4-(4-{[(3R)-1-acryloylpiperidin-3-yl]amino}-7H-pyrrolo[2,3-d]pyrimidin-5-yl)-2-chloro-N-cyclopropylbenzamide] |  |  |  |  |  |  | IC50 (JAK3 enzyme; read-out: JAK3 (4 μM ATP) IC50): 24.1 nM; IC50 (JAK3 enzyme; read-out: JAK3 (1 mM ATP) IC50): 1860 nM; Human blood stability t1/2: >6 h
3 | C=CC(=O)N1CCC(Oc2cnc3[nH]cc(-c4cnn(C)c4)c3n2)CC1 [Example 218, 1-(4-{[7-(1-methyl-1H-pyrazol-4-yl)-5H-pyrrolo[2,3-b]pyrazin-2-yl]oxy}piperidin-1-yl)prop-2-en-1-one] | 0.6 | 81.1 | 6190 |  | 345 |  | 
4 | C=CC(=O)N1CCC[C@@H](Nc2ccnc3[nH]cc(C#N)c23)C1 [Example 2, (R)-4-((1-acryloylpiperidin-3-yl)amino)-1H-pyrrolo[2,3-b]pyridine-3-carbonitrile] |  |  |  |  |  |  | IC50 (JAK3 enzyme; read-out: JAK3 (4 μM ATP) IC50): 0.2 nM; IC50 (JAK3 enzyme; read-out: JAK3 (1 mM ATP) IC50): 18.9 nM; IC50 [1]: 220 nM; IC50 [2]: 30.4 nM; Human blood stability t1/2: >6 h
5 | C/C=C/C(=O)N1CCC[C@@H](Nc2ncnc3[nH]ccc23)C1 [Example 105, (2E)-1-[(3R)-3-(7H-pyrrolo[2,3-d]pyrimidin-4-ylamino)piperidin-1-yl]but-2-en-1-one] | 2480 | > 10000 |  | >6 |  |  | 

Continued, in another order:

Row | IC50 (JAK3 enzyme; [4]) [nM] | IC50 (JAK3 enzyme; [5]) [nM] | IC50 ([1]; Lymphocyte) [nM] | Human blood stability t1/2 [3] [h] | SMILES | IC50 [2, 6] [nM] | IC50 ([2]; human PBMC, IL-15 stimulated) [nM] | other results
6 |  |  | 455 | >5.558 | C=CC(=O)N1C[C@H](Nc2ncnc3[nH]ccc23)CC[C@@H]1CO (single isomer, unassigned) [Example 7] | 76.9 |  | 
7 |  |  |  | >5.392 | C=CC(=O)N1C[C@H](Nc2ncnc3[nH]ccc23)CC[C@@H]1CO [Example 161, 1-[(2R,5R)-2-(Hydroxymethyl)-5-(7H-pyrrolo[2,3-d]pyrimidin-4-ylamino)piperidin-1-y]prop-2-en-1-one] |  | 76.9 | IC50 [1]: 455 nM
8 | 2.3 | 309 | > 10000 |  | C=CC(=O)N1CC(O)C(Nc2cnc3[nH]cc(C(=O)NC(C)C)c3n2)C1 (stereo not shown) [Example 179, 2-[(1-acryloyl-4-hydroxypyrrolidin-3-yl)amino]-N-(propan-2-yl)-5H-pyrrolo[2,3-b]pyrazine-7-carboxamide] |  | > 10000 | 
9 |  |  |  | >5.558 | C=CC(=O)N1CC(Nc2ncnc3[nH]ccc23)CCC1CO (stereo not shown) [Example 118, 1-[2-(Hydroxymethyl)-5-(7H-pyrrolo[2,3-d]pyrimidin-4-ylamino)piperidin-1-yl]prop-2-en-1-one] |  | > 10000 | 
10 | 0.2 | 20.6 | 532 |  | C=CC(=O)N1CCC(Nc2cnc3[nH]cc(C(=O)N[C@@H]4C[C@H]4C(F)(F)F)c3n2)CC1 [Example 233, 2-[(1-acryloylpiperidin-4-yl)amino]-N-[(1R,2R)-2-(trifluoromethyl)cyclopropyl]-5H-pyrrolo[2,3-b]pyrazine-7-carboxamide] |  | 213 | 
11 |  |  | > 10000 |  | C=CC(=O)N1C[C@@H](Nc2ncnc3[nH]ccc23)CC[C@H]1CO [Example 117, 1-[(2S,5S)-2-(Hydroxymethyl)-5-(7H-pyrrolo[2,3-d]pyrimidin-4-ylamino)piperidin-1-yl]prop-2-en-1-one] | > 10000 |  | 

Reference: patent US20250134869A1, “Pyrrolo[2,3-d]pyrimidinyl, Pyrrolo[2,3-b]pyrazinyl and Pyrrolo[2,3-d]pyridinyl Acryla-mides” (Pfizer Inc, priority 2021, published 2025)
